In assay [1] the target is T1, human GPR55 (Homo sapiens, UniProt Q9Y2T6).
T1 construct: expressed in transfected cells; host or cells: HEK293 (human embryonic kidney) cells
As to the kind of experiment: Ca2+ mobilization assay (FLIPR, Calcium5 dye), human GPR55. The conditions noted are these: HEK293 cells co-expressing PK-tagged human GPR55 and EA-tagged beta-arrestin; intracellular calcium increase. It counts as cell-based. Here is the method: (§1) This cell-based assay measures the ability of compounds to activate the GPR55 receptor by measuring changes in intracellular calcium levels. HEK293 (human embryonic kidney) cells co-expressing recombinant ProLink (PK) tagged human or rat GPR55 and Enzyme Acceptor (EA) tagged beta-arrestin were seeded into PDL-coated, black-walled clear-bottom 384 well plates in assay buffer (25 mM HEPES, HBSS, 1 mM Probenicid, 0.1% BSA, pH 7.4) containing Calcium5 dye (Molecular Devices). Cells were incubated in suspension with the Calcium5 dye for 1 hour at 37° C., 5% CO2. Dilution series of the compounds in assay buffer were added to the cells in duplicate wells and compound-mediated real-time increases in intracellular calcium concentration were recorded as increased fluorescence using the Molecular Devices FLIPR instrument. Kinetic traces were reduced to a numerical value by subtracting the minimum response from the maximum response.
(A change in cytosolic calcium serves as a functional read-out for many receptors and channels.)

Assay [2] deals with T2, rat GPR55 (Rattus norvegicus, UniProt F1MAK4).
T2 construct: expressed in transfected cells; host or cells: HEK293 (human embryonic kidney) cells
T2 sequence (F1MAK4 1-319): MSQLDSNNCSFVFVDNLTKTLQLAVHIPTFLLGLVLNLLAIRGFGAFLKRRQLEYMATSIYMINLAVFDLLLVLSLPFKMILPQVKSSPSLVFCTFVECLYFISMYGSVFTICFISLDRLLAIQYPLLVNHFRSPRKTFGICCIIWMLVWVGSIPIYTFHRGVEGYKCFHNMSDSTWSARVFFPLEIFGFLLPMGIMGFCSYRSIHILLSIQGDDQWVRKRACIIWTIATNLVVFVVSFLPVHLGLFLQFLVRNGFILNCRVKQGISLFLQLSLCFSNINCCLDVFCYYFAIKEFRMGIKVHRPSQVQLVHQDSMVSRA
As to the kind of experiment: Ca2+ mobilization assay (FLIPR, Calcium5 dye), rat GPR55. The assay is classed as cell-based. The conditions noted are these: HEK293 cells co-expressing PK-tagged rat GPR55 and EA-tagged beta-arrestin; intracellular calcium increase. Here is the method:
as §1

T1 sequence (Q9Y2T6 whole entry): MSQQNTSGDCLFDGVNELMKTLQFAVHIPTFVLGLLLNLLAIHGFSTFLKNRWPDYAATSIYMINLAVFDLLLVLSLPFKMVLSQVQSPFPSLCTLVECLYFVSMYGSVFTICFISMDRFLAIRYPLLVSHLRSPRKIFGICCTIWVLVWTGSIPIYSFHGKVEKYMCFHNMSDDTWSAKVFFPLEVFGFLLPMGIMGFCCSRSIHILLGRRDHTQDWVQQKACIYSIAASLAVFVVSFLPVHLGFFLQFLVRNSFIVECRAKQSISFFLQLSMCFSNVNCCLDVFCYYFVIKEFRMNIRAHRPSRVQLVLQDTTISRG

Usually EC50 stands for the concentration at which the effect is half-maximal. Turning to `CC(O)c1cncc(-c2ccc(N[C@H](C)c3ccc(F)cc3)nc2)c1` (single isomer, unassigned) [Example 16b], the EC50 in assay [1] is ≤ 0.05 µM; in assay [2], ≤ 0.2 µM.
For `C[C@@H](Nc1ccc(-c2cncc(S(C)(=O)=O)c2)cn1)c1ccc(F)cc1` [Example 7, (R)-N-(1-(4-fluorophenyl)ethyl)-5′-(methylsulfonyl)-[3,3′-bipyridin]-6-amine], in that order: ≤ 0.2 µM and ≤ 0.2 µM.
As to `C[C@@H](Nc1cnc(-c2cncc(C(O)C(F)(F)F)c2)cn1)c1ccc(F)cc1` (single isomer, unassigned) [Example 32a], the EC50 in assay [1] and in assay [2] was ≤ 0.05 µM throughout.
For the compound `C[C@@H](Nc1cnc(-c2cncc([S+](C)[O-])c2)cn1)c1ccc(F)cc1` (stereo partly drawn) [Example 23, N-((R)-1-(4-fluorophenyl)ethyl)-5-(5-(methylsulfinyl)pyridin-3-yl)pyrazin-2-amine], the EC50 was ≤ 1 µM in assay [1] and ≤ 5 µM in assay [2].
For the compound `C[C@@H](Nc1cnc(-c2cncc(C(O)C(F)(F)F)c2)cn1)c1ccc(F)cc1` (mixture of isomers) [Example 32, 2,2,2-trifluoro-1-(5-(5-(((R)-1-(4-fluorophenyl)ethyl)amino)pyrazin-2-yl)pyridin-3-yl)ethan-1-ol], the EC50 in assay [1] was ≤ 0.2 µM; in assay [2], ≤ 0.05 µM.
For `C[C@@H](Nc1cnc(-c2cncc(C(O)C(F)F)c2)cn1)c1ccc(F)cc1` (single isomer, unassigned) [Example 54b], in that order: ≤ 1 µM and ≤ 1 µM.
For the compound `C[C@@H](Nc1ncc(-c2cnc3ncn(C)c3c2)nn1)c1ccc(F)cc1` [Example 82, (R)-N-(1-(4-fluorophenyl)ethyl)-6-(1-methyl-1H-imidazo[4,5-b]pyridin-6-yl)-1,2,4-triazin-3-amine], the EC50 was ≤ 1 µM in assay [1] and ≤ 5 µM in assay [2].
Consider `C[C@@H](Nc1cnc(-c2cncc(CCO)c2)cn1)c1ccc(F)cc1` [Example 35, (R)-2-(5-(5-((1-(4-fluorophenyl)ethyl)amino)pyrazin-2-yl)pyridin-3-yl)ethan-1-ol], for which the EC50 in assay [1] was ≤ 0.05 µM; in assay [2], ≤ 5 µM.
Turning to `C[C@@H](Nc1ncc(-c2ccc3oc(=O)n(CS(C)(=O)=O)c3c2)nn1)c1ccc(F)cc1` [Example 72, (R)-5-(3-((1-(4-fluorophenyl)ethyl)amino)-1,2,4-triazin-6-yl)-3-((methylsulfonyl)methyl)benzo[d]oxazol-2(3H)-one], the EC50 was ≤ 1 µM in assay [1] and ≤ 5 µM in assay [2].
With `C=Cc1cncc(-c2cnc(N[C@H](C)c3ccc(F)cc3)cn2)c1` [Example 33, (R)-N-(1-(4-fluorophenyl)ethyl)-5-(5-vinylpyridin-3-yl)pyrazin-2-amine], the EC50 in assay [1] is ≤ 0.05 µM; in assay [2] it was ≤ 1 µM.
Turning to `C[C@@H](Nc1cnc(-c2cncc(C(O)C(F)(F)F)c2)cn1)c1ccc(F)cc1` (single isomer, unassigned) [Example 32b], the EC50 is ≤ 0.05 µM in assay [1] and ≤ 1 µM in assay [2].
Turning to `CS(=O)(=O)c1cncc(-c2cnc(N[C@@H]3CCc4ccccc43)cn2)c1` [Example 36, (R)-N-(2,3-dihydro-1H-inden-1-yl)-5-(5-(methylsulfonyl)pyridin-3-yl)pyrazin-2-amine], the EC50 in assay [1] was ≤ 0.2 µM; in assay [2] it was ≤ 5 µM.
For `C[C@@H](Nc1cnc(-c2cncc(OC(F)(F)F)c2)cn1)c1ccc(F)cc1` [Example 43, (R)-N-(1-(4-fluorophenyl)ethyl)-5-(5-(trifluoromethoxy)pyridin-3-yl)pyrazin-2-amine], in that order: ≤ 0.05 µM and ≤ 5 µM.
On to `C[C@@H](Nc1cnc(-c2cncc(CCF)c2)cn1)c1ccc(F)cc1` [Example 52, (R)-5-(5-(2-fluoroethyl)pyridin-3-yl)-N-(1-(4-fluorophenyl)ethyl)pyrazin-2-amine], for which the EC50 is ≤ 0.05 µM in assay [1] and ≤ 0.2 µM in assay [2].
In the case of `C[C@@H](Nc1ccc(-c2ccc3oc(=O)[nH]c3c2)cn1)c1ccc(F)cc1` [Example 59, (R)-5-(6-((1-(4-fluorophenyl)ethyl)amino)pyridin-3-yl)benzo[d]oxazol-2(3H)-one], the EC50 in assay [1] was ≤ 1 µM; in assay [2] it was ≤ 5 µM.
On to `C[C@@H](Nc1ccc(-c2ccc3[nH]c(=O)oc3c2)cn1)c1ccc(F)cc1` [Example 61, (R)-6-(6-((1-(4-fluorophenyl)ethyl)amino)pyridin-3-yl)benzo[d]oxazol-2(3H)-one], for which the EC50 in assay [1] was ≤ 1 µM; in assay [2] it was ≤ 5 µM.
Regarding `C#Cc1cncc(-c2ccc(N[C@H](C)c3ccc(F)cc3)nc2)c1` [Example 51, (R)-5′-ethynyl-N-(1-(4-fluorophenyl)ethyl)-[3,3′-bipyridin]-6-amine], the values for the EC50 in assay [1] and in assay [2] were ≤ 0.05 µM and ≤ 1 µM, respectively.
For `CCn1c(=O)oc2ccc(-c3cnc(N[C@H](C)c4ccc(F)cc4)nn3)cc21` [Example 67, (R)-3-ethyl-5-(3-((1-(4-fluorophenyl)ethyl)amino)-1,2,4-triazin-6-yl)benzo[d]oxazol-2(3H)-one], in that order: ≤ 0.2 µM and ≤ 1 µM.
As for `CC[S+]([O-])c1cncc(-c2cnc(N[C@H](C)c3ccc(F)cc3)cn2)c1` (stereo partly drawn) [Example 24, 5-(5-(ethylsulfinyl)pyridin-3-yl)-N-((R)-1-(4-fluorophenyl)ethyl)pyrazin-2-amine], the EC50 in assay [1] was ≤ 0.2 µM; in assay [2], ≤ 5 µM.
As for `CCc1cncc(-c2ccc(N[C@H](C)c3ccccc3F)nc2)c1` [Example 19, (R)-5′-ethyl-N-(1-(2-fluorophenyl)ethyl)-[3,3′-bipyridin]-6-amine], the half-maximal effective concentration (EC50) in assay [1] and in assay [2] was ≤ 1 µM in each case.
For the compound `CC(Nc1cc(F)c(-c2cncc(S(C)(=O)=O)c2)cn1)c1ccc(F)cc1` (single isomer, unassigned) [Example 29a, 4-fluoro-N-(1-(4-fluorophenyl)ethyl)-5′-(methylsulfonyl)-[3,3′-bipyridin]-6-amine], the EC50 in assay [1] is ≤ 0.05 µM; in assay [2], ≤ 1 µM.
For `C[C@@H](Nc1ncc(-c2ccc3ocnc3c2)nn1)c1ccc(F)cc1` [Example 80, (R)-6-(benzo[d]oxazol-5-yl)-N-(1-(4-fluorophenyl)ethyl)-1,2,4-triazin-3-amine], in that order: ≤ 0.2 µM and ≤ 1 µM.
As for `CCc1cncc(-c2ccc(N[C@H](C)c3ccc(OC)cc3)nc2)c1` [Example 47, (R)-5′-ethyl-N-(1-(4-methoxyphenyl)ethyl)-[3,3′-bipyridin]-6-amine], the EC50 in assay [1] is ≤ 1 µM; in assay [2], ≤ 5 µM.
For the compound `C[C@@H](Nc1cnc(-c2cncc(C(O)C(F)F)c2)cn1)c1ccc(F)cc1` (single isomer, unassigned) [Example 54a], the EC50 in assay [1] is ≤ 1 µM; in assay [2], ≤ 0.2 µM.
For `C[C@@H](Nc1cnc(-c2cncc(CC(F)(F)F)c2)nn1)c1ccc(F)cc1` [Example 56, (R)-N-(1-(4-fluorophenyl)ethyl)-3-(5-(2,2,2-trifluoroethyl)pyridin-3-yl)-1,2,4-triazin-6-amine], in that order: ≤ 1 µM and ≤ 5 µM.
Regarding `C[C@@H](Nc1ncc(-c2cncc(CO)c2)nn1)c1ccc(F)cc1` [Example 41, (R)-(5-(3-((1-(4-fluorophenyl)ethyl)amino)-1,2,4-triazin-6-yl)pyridin-3-yl)methanol], the EC50 is ≤ 0.2 µM in assay [1] and ≤ 1 µM in assay [2].
For `C[C@@H](Nc1ccc(-c2cncc(N(C)C)c2)cn1)c1ccc(F)cc1` [Example 12, (R)-N6′-(1-(4-fluorophenyl)ethyl)-N5,N5-dimethyl-[3,3′-bipyridine]-5,6′-diamine], in that order: ≤ 1 µM and ≤ 5 µM.
With `C[C@@H](Nc1ncc(-c2ccc3oc(=O)n(CCN(C)C)c3c2)nn1)c1ccc(F)cc1` [Example 71, (R)-3-(2-(dimethylamino)ethyl)-5-(3-((1-(4-fluorophenyl)ethyl)amino)-1,2,4-triazin-6-yl)benzo[d]oxazol-2(3H)-one], the EC50 was ≤ 1 µM in assay [1] and ≤ 5 µM in assay [2].
For `OC(c1cncc(-c2cnc(N[C@@H]3CCc4ccccc43)cn2)c1)C(F)F` (stereo partly drawn) [Example 45, 1-(5-(5-(((R)-2,3-dihydro-1H-inden-1-yl)amino)pyrazin-2-yl)pyridin-3-yl)-2,2-difluoroethan-1-ol], in that order: ≤ 0.2 µM and ≤ 1 µM.
Regarding `CCc1cncc(-c2cnc(N[C@H](C)c3ccc(F)cc3)cn2)c1` [Example 17, (R)-5-(5-ethylpyridin-3-yl)-N-(1-(4-fluorophenyl)ethyl)pyrazin-2-amine], the EC50 in assay [1] was ≤ 0.05 µM; in assay [2], ≤ 1 µM.
For `CC(O)c1cncc(-c2ccc(N[C@H](C)c3ccc(F)cc3)nc2)c1` (single isomer, unassigned) [Example 16a], in that order: ≤ 1 µM and ≤ 0.05 µM.

These data come from patent US20250282728A1, “NITROGEN COMPRISING HETEROCYCLIC DERIVATIVES FOR THE TREATMENT OF DISORDERS ASSOCIATED WITH GPR55 RECEPTOR” (Cerevance, Inc., priority 2022, published 2025).
